We go through 30 molecules from patent US10689381B2 (priority 2017, dated 2020).

One test has as its system L1210. As to the kind of experiment: cells. Format: cell-based, mouse. A digest of the protocol:
(§1)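 Compound exposure ran 72 h at six concentrations (0–1000 nM or 0–10000 nM, duplicate) on cells plated at 30,000 cells/mL in 10% FBS DMEM. A closing 37 °C incubation took 15 min (HCT116) or 5 min (L1210).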

Another test concerns HCT116. As to the kind of experiment: cells. Type of test: cell-based, human. The note with it: for pIC50: read-out: IC50 HCT116. A digest of the protocol: as §1
Setting [1] is: vinblastine-sensitive cell lines.

The structures appear in SMILES notation. pIC50: −log10 of the molar value. Read-outs that look alike come from different tables or passages of the source.

Turning to `CCC1(NC(=O)c2cc(C)c(OC)c(C)c2)CC2CN(CCc3c([nH]c4ccccc34)C(C(=O)OC)(c3cc4c(cc3OC)N(C)C3C(O)(C(=O)OC)C(OC(C)=O)C5(CC)C=CCN6CCC43C65)C2)C1` (stereo not shown) [Compound 99], the pIC50 (commonly −log10 of the IC50, conventionally taken in molar units) was 9.30 in the test on L1210 (Table 2) and 9.19 in the test on HCT116 (Table 2). The “potency relative to vinblastine (more potent)” value with HCT116 (setting [1]) amounted to 10 fold.

As for `CC[C@]1(NC(=O)c2cc(C)c(OCc3ccccc3)c(C)c2)C[C@H]2CN(CCc3c([nH]c4ccccc34)[C@@](C(=O)OC)(c3cc4c(cc3OC)N(C)[C@H]3[C@@](O)(C(=O)OC)[C@H](OC(C)=O)[C@]5(CC)C=CCN6CC[C@]43[C@@H]65)C2)C1` [Compound 100], the pIC50 with L1210 (Table 2) and in the test with HCT116 (Table 2) was 7.52 each time.

Regarding `CCC1(NC(=O)c2ccc(C)c(N)c2)CC2CN(CCc3c([nH]c4ccccc34)C(C(=O)OC)(c3cc4c(cc3OC)N(C)C3C(O)(C(=O)OC)C(OC(C)=O)C5(CC)C=CCN6CCC43C65)C2)C1` (stereo not shown) [Compound 101], the pIC50 in the test on L1210 (Table 2) is 9.22; in the test with HCT116 (Table 2), 9.15.

In the case of `CCC1(NC(=O)c2ccc(C)c(NC(=O)OC(C)(C)C)c2)CC2CN(CCc3c([nH]c4ccccc34)C(C(=O)OC)(c3cc4c(cc3OC)N(C)C3C(O)(C(=O)OC)C(OC(C)=O)C5(CC)C=CCN6CCC43C65)C2)C1` (stereo not shown) [Compound 102], the pIC50 in the test on L1210 (Table 2) is 8.22; with HCT116 (Table 2), 8.15.

For `CCC1(NC(=O)c2ccc(C)c(NC(C)=O)c2)CC2CN(CCc3c([nH]c4ccccc34)C(C(=O)OC)(c3cc4c(cc3OC)N(C)C3C(O)(C(=O)OC)C(OC(C)=O)C5(CC)C=CCN6CCC43C65)C2)C1` (stereo not shown) [Compound 103], the pIC50 in the test on L1210 (Table 2) was 8.27; with HCT116 (Table 2), 8.37.

For `CC[C@]1(NC(=O)c2ccc(N)c(C)c2)C[C@H]2CN(CCc3c([nH]c4ccccc34)[C@@](C(=O)OC)(c3cc4c(cc3OC)N(C)[C@H]3[C@@](O)(C(=O)OC)[C@H](OC(C)=O)[C@]5(CC)C=CCN6CC[C@]43[C@@H]65)C2)C1` [Compound 104], the pIC50 with L1210 (Table 2) and in the test with HCT116 (Table 2) was 9.22 each time.

For `CC[C@]1(NC(=O)c2ccc(NC(=O)OC(C)(C)C)c(C)c2)C[C@H]2CN(CCc3c([nH]c4ccccc34)[C@@](C(=O)OC)(c3cc4c(cc3OC)N(C)[C@H]3[C@@](O)(C(=O)OC)[C@H](OC(C)=O)[C@]5(CC)C=CCN6CC[C@]43[C@@H]65)C2)C1` [Compound 105], the pIC50 is 8.25 with L1210 (Table 2) and 8.24 with HCT116 (Table 2).

As to `CC[C@]1(NC(=O)c2cccc(N3CCOCC3)c2)C[C@H]2CN(CCc3c([nH]c4ccccc34)[C@@](C(=O)OC)(c3cc4c(cc3OC)N(C)[C@H]3[C@@](O)(C(=O)OC)[C@H](OC(C)=O)[C@]5(CC)C=CCN6CC[C@]43[C@@H]65)C2)C1` [Compound 106], the values for the pIC50 in the test on L1210 (Table 2) and in the test with HCT116 (Table 2) were 8.32 and 8.55, respectively.

With `CCC1(NC(=O)c2ccc(C)c(NC(=O)c3ccccc3)c2)CC2CN(CCc3c([nH]c4ccccc34)C(C(=O)OC)(c3cc4c(cc3OC)N(C)C3C(O)(C(=O)OC)C(OC(C)=O)C5(CC)C=CCN6CCC43C65)C2)C1` (stereo not shown) [Compound 107], the pIC50 in the test with L1210 (Table 2) was 7.52; in the test with HCT116 (Table 2), 8.12.

Turning to `CCC1(NC(=O)C=Cc2ccccc2)CC2CN(CCc3c([nH]c4ccccc34)C(C(=O)OC)(c3cc4c(cc3OC)N(C)C3C(O)(C(=O)OC)C(OC(C)=O)C5(CC)C=CCN6CCC43C65)C2)C1` (stereo not shown) [Compound 108], the pIC50 with L1210 (Table 3) is 9.10; with HCT116 (Table 3), 9.05.

Consider `CCC1(NC(=O)C=Cc2ccncc2)CC2CN(CCc3c([nH]c4ccccc34)C(C(=O)OC)(c3cc4c(cc3OC)N(C)C3C(O)(C(=O)OC)C(OC(C)=O)C5(CC)C=CCN6CCC43C65)C2)C1` (stereo not shown) [Compound 109], for which the pIC50 was 9.22 with L1210 (Table 3) and 9.15 with HCT116 (Table 3).

`CCC1(NC(=O)C=Cc2cccnc2)CC2CN(CCc3c([nH]c4ccccc34)C(C(=O)OC)(c3cc4c(cc3OC)N(C)C3C(O)(C(=O)OC)C(OC(C)=O)C5(CC)C=CCN6CCC43C65)C2)C1` (stereo not shown) [Compound 110]: the pIC50 in the test with L1210 (Table 3) was 8.23; in the test on HCT116 (Table 3) it was 8.24.

`CC[C@]1(NC(=O)/C=C/c2ccccn2)C[C@H]2CN(CCc3c([nH]c4ccccc34)[C@@](C(=O)OC)(c3cc4c(cc3OC)N(C)[C@H]3[C@@](O)(C(=O)OC)[C@H](OC(C)=O)[C@]5(CC)C=CCN6CC[C@]43[C@@H]65)C2)C1` [Compound 111]: the pIC50 with L1210 (Table 3) and in the test with HCT116 (Table 3) was 9.15 each time.

Turning to `CC[C@]1(NC(=O)/C=C/c2ccoc2)C[C@H]2CN(CCc3c([nH]c4ccccc34)[C@@](C(=O)OC)(c3cc4c(cc3OC)N(C)[C@H]3[C@@](O)(C(=O)OC)[C@H](OC(C)=O)[C@]5(CC)C=CCN6CC[C@]43[C@@H]65)C2)C1` [Compound 112], the pIC50 in the test on L1210 (Table 3) and with HCT116 (Table 3) was 9.15 in each case.

Consider `CC[C@]1(NC(=O)/C=C/c2ccco2)C[C@H]2CN(CCc3c([nH]c4ccccc34)[C@@](C(=O)OC)(c3cc4c(cc3OC)N(C)[C@H]3[C@@](O)(C(=O)OC)[C@H](OC(C)=O)[C@]5(CC)C=CCN6CC[C@]43[C@@H]65)C2)C1` [Compound 113], for which the pIC50 in the test on L1210 (Table 3) and in the test on HCT116 (Table 3) was 8.89 throughout.

As for `CC[C@]1(NC(=O)/C=C/c2ccsc2)C[C@H]2CN(CCc3c([nH]c4ccccc34)[C@@](C(=O)OC)(c3cc4c(cc3OC)N(C)[C@H]3[C@@](O)(C(=O)OC)[C@H](OC(C)=O)[C@]5(CC)C=CCN6CC[C@]43[C@@H]65)C2)C1` [Compound 114], the results for the pIC50 with L1210 (Table 3) and in the test on HCT116 (Table 3) were 9.30 and 9.22, respectively.

Regarding `CCC1(NC(=O)c2cccc3ccccc23)CC2CN(CCc3c([nH]c4ccccc34)C(C(=O)OC)(c3cc4c(cc3OC)N(C)C3C(O)(C(=O)OC)C(OC(C)=O)C5(CC)C=CCN6CCC43C65)C2)C1` (stereo not shown) [Compound 115], the figures for the pIC50 with L1210 (Table 4) and in the test with HCT116 (Table 4) were 7.22 and 7.19, respectively. In addition, the “potency relative to vinblastine (less potent / reduced activity)” value in the test on HCT116 (setting [1]) was “roughly 10 fold”.

On to `CCC1(NC(=O)c2ccc3ccccc3c2)CC2CN(CCc3c([nH]c4ccccc34)C(C(=O)OC)(c3cc4c(cc3OC)N(C)C3C(O)(C(=O)OC)C(OC(C)=O)C5(CC)C=CCN6CCC43C65)C2)C1` (stereo not shown) [Compound 116], for which the pIC50 with L1210 (Table 4) is 8.72; in the test on HCT116 (Table 4) it was 8.64. Besides, in the test on HCT116 (setting [1]), the “potency relative to vinblastine (more potent)” value is given as “approximately 3 fold”.

For `CCC1(NC(=O)c2ccc3cc(N)ccc3c2)CC2CN(CCc3c([nH]c4ccccc34)C(C(=O)OC)(c3cc4c(cc3OC)N(C)C3C(O)(C(=O)OC)C(OC(C)=O)C5(CC)C=CCN6CCC43C65)C2)C1` (stereo not shown) [Compound 117], the pIC50 in the test with L1210 (Table 4) was 9.15; in the test on HCT116 (Table 4) it was 9.10.

Turning to `CCC1(NC(=O)c2ccc3cc(NC(=O)OC(C)(C)C)ccc3c2)CC2CN(CCc3c([nH]c4ccccc34)C(C(=O)OC)(c3cc4c(cc3OC)N(C)C3C(O)(C(=O)OC)C(OC(C)=O)C5(CC)C=CCN6CCC43C65)C2)C1` (stereo not shown) [Compound 118], the values for the pIC50 with L1210 (Table 4) and with HCT116 (Table 4) were 8.30 and 8.19, respectively.

Consider `CCC1(NC(=O)c2ccc3cc(OC)ccc3c2)CC2CN(CCc3c([nH]c4ccccc34)C(C(=O)OC)(c3cc4c(cc3OC)N(C)C3C(O)(C(=O)OC)C(OC(C)=O)C5(CC)C=CCN6CCC43C65)C2)C1` (stereo not shown) [Compound 119], for which the results for the pIC50 in the test with L1210 (Table 4) and with HCT116 (Table 4) were 8.60 and 8.46, respectively.

As to `CCC1(NC(=O)c2ccc3cccc(OC)c3c2)CC2CN(CCc3c([nH]c4ccccc34)C(C(=O)OC)(c3cc4c(cc3OC)N(C)C3C(O)(C(=O)OC)C(OC(C)=O)C5(CC)C=CCN6CCC43C65)C2)C1` (stereo not shown) [Compound 120], the pIC50 was 8.00 with L1210 (Table 4) and 7.89 in the test on HCT116 (Table 4).

For the molecule `CCC1(NC(=O)c2ccc3c(c2)C(C)(C)CCC3(C)C)CC2CN(CCc3c([nH]c4ccccc34)C(C(=O)OC)(c3cc4c(cc3OC)N(C)C3C(O)(C(=O)OC)C(OC(C)=O)C5(CC)C=CCN6CCC43C65)C2)C1` (stereo not shown) [Compound 123], the values for the pIC50 with L1210 (Table 4) and in the test with HCT116 (Table 4) were 8.13 and 8.11, respectively.

In the case of `CCC1(NC(=O)c2ccc3c(c2)CCC3)CC2CN(CCc3c([nH]c4ccccc34)C(C(=O)OC)(c3cc4c(cc3OC)N(C)C3C(O)(C(=O)OC)C(OC(C)=O)C5(CC)C=CCN6CCC43C65)C2)C1` (stereo not shown) [Compound 124], the pIC50 with L1210 (Table 4) was 8.30; in the test on HCT116 (Table 4), 8.25. Moreover, the “potency relative to vinblastine (more potent)” value in the test on HCT116 (setting [1]) was “about 2 fold”.

Turning to `CCC1(NC(=O)C2Cc3ccccc3C2)CC2CN(CCc3c([nH]c4ccccc34)C(C(=O)OC)(c3cc4c(cc3OC)N(C)C3C(O)(C(=O)OC)C(OC(C)=O)C5(CC)C=CCN6CCC43C65)C2)C1` (stereo not shown) [Compound 125], the values for the pIC50 with L1210 (Table 4) and in the test with HCT116 (Table 4) were 7.52 and 7.82, respectively.

For the molecule `CCC1(NC(=O)c2ccc3c(c2)CCCCC3)CC2CN(CCc3c([nH]c4ccccc34)C(C(=O)OC)(c3cc4c(cc3OC)N(C)C3C(O)(C(=O)OC)C(OC(C)=O)C5(CC)C=CCN6CCC43C65)C2)C1` (stereo not shown) [Compound 126], the pIC50 was 8.21 in the test on L1210 (Table 4) and 8.32 in the test on HCT116 (Table 4).

With `CC[C@]1(NC(=O)c2ccc3cc4ccccc4cc3c2)C[C@H]2CN(CCc3c([nH]c4ccccc34)[C@@](C(=O)OC)(c3cc4c(cc3OC)N(C)[C@H]3[C@@](O)(C(=O)OC)[C@H](OC(C)=O)[C@]5(CC)C=CCN6CC[C@]43[C@@H]65)C2)C1` [Compound 127], the pIC50 was 7.40 in the test on L1210 (Table 4) and 7.22 with HCT116 (Table 4).

On to `CCC1(NC(=O)c2ccncc2)CC2CN(CCc3c([nH]c4ccccc34)C(C(=O)OC)(c3cc4c(cc3OC)N(C)C3C(O)(C(=O)OC)C(OC(C)=O)C5(CC)C=CCN6CCC43C65)C2)C1` (stereo not shown) [Compound 128], for which the pIC50 in the test with L1210 (Table 5) and in the test with HCT116 (Table 5) was 9.40 each time.

`CCC1(NC(=O)c2cccnc2)CC2CN(CCc3c([nH]c4ccccc34)C(C(=O)OC)(c3cc4c(cc3OC)N(C)C3C(O)(C(=O)OC)C(OC(C)=O)C5(CC)C=CCN6CCC43C65)C2)C1` (stereo not shown) [Compound 129]: the pIC50 in the test on L1210 (Table 5) is 9.15; in the test on HCT116 (Table 5) it was 9.22.

In the case of `CCC1(NC(=O)c2ccccn2)CC2CN(CCc3c([nH]c4ccccc34)C(C(=O)OC)(c3cc4c(cc3OC)N(C)C3C(O)(C(=O)OC)C(OC(C)=O)C5(CC)C=CCN6CCC43C65)C2)C1` (stereo not shown) [Compound 130], the pIC50 was 7.26 in the test on L1210 (Table 5) and 7.30 in the test with HCT116 (Table 5).
